The values below come from article PMC8163982, “Partial agonism improves the anti-hyperglycaemic efficacy of an oxyntomodulin-derived GLP-1R/GCGR co-agonist” (Molecular Metabolism, 2021).

Where a SMILES comes first, the peptide text is derived from it. [ ]: non-standard residue; d: D form. Aib = CC(C)(N)C(=O)O

For one data set, the target named is GLP-1R (Homo sapiens, UniProt P43220). Put plainly: NanoBiT mini-Gs recruitment to GLP-1R-SmBiT in HEK293T cells. The settings on record: SRB103 pair, mean ± SEM, n = 6. Format: cell-based. How it is done:
The assay was performed as previously described. […] (gifts from Professor Nevin Lambert, Medical College of Georgia) or 0.05 μg of GLP-1R-SmBiT and 0.05 μg of LgBiT-β-arrestin-2 (Promega) plus 0.9 μg of pcDNA3.1 for 24 h. The cells were detached with EDTA, resuspended in HBSS, and furimazine (Promega) was added at a 1:50 dilution from the manufacturer's pre-prepared stock. After dispensing into 96-well white plates, a baseline read of the luminescent signals was serially recorded for 5 min using a FlexStation 3 instrument at 37 °C before the indicated concentration of ligand was added, after which the signals were repeatedly recorded for 30 min. […] Bias was calculated using two approaches. First, the log max/EC50 method was used, with the ratio of Emax to EC50 from 3-parameter fits for each ligand used to quantify agonism. After log10 transformation, responses were expressed relative to the reference agonist on a per assay basis to obtain Δlog(Emax/EC50) for each pathway. Pathway-specific values were then expressed relative to each other to obtain ΔΔlog(Emax/EC50), that is, the log bias factor. Second, a method derived from kinetic curve fitting was used. Here, kinetic responses for a single maximal agonist concentration were normalised at each time point to the vehicle response prior to curve fitting. […]

Data set [1] is described as follows: Pharmacokinetic study in mice (plasma radioimmunoassay). To be noted: 0.5 mg/kg IP. Format: in vivo, mouse. How it is done:
The mice were administered 0.5 mg/kg of peptide via IP injection. Four h after injection, blood was acquired by venesection into lithium heparin-coated microvette tubes (Sarstedt, Germany). In a separate study, male Sprague Dawley rats (average weight 250 g, obtained from Charles River) were administered 4 mg/kg of peptide SC mixed in aqueous ZnCl2 solution to a molar ratio of 0.7:1 (peptide:ZnCl2), and blood was collected by venesection at several time points up to 72 h. Plasma was separated by centrifugation at 10,000 g for 8 min at 4 °C. Plasma concentrations were assessed by radioimmunoassay using an in-house assay as previously described using standard curves generated from each SRB103 peptide to ensure that equivalent recovery was obtained.

A word on the Emax: it is the greatest response seen or fitted, relative to the assay's reference.

Chain of GLP-1R (P43220 24-463): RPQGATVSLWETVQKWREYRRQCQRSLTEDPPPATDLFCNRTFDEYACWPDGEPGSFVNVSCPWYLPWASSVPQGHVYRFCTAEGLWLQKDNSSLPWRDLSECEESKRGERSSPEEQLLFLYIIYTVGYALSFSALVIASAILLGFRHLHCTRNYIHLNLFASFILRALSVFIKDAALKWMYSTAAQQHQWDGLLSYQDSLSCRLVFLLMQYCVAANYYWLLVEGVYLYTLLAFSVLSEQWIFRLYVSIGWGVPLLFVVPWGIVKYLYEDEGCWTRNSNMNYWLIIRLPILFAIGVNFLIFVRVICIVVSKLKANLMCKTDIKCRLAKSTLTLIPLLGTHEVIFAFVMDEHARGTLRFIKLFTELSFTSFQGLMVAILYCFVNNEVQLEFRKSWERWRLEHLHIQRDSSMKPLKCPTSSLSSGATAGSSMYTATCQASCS

With `CC[C@H](C)[C@H](NC(=O)[C@H](Cc1ccccc1)NC(=O)[C@H](CCC(=O)O)NC(=O)[C@H](CCC(N)=O)NC(=O)[C@H](C)NC(=O)[C@H](CCCNC(=N)N)NC(=O)[C@H](CCCCN)NC(=O)[C@H](C)NC(=O)[C@H](CC(=O)O)NC(=O)[C@H](CC(C)C)NC(=O)[C@H](Cc1ccc(O)cc1)NC(=O)[C@H](CCCCN)NC(=O)[C@H](CO)NC(=O)[C@H](Cc1ccc(O)cc1)NC(=O)[C@H](CC(=O)O)NC(=O)[C@H](CO)NC(=O)[C@@H](NC(=O)[C@H](Cc1ccccc1)NC(=O)[C@@H](NC(=O)CNC(=O)[C@H](Cc1c[nH]cn1)NC(=O)C(C)(C)NC(=O)[C@@H](N)Cc1c[nH]cn1)[C@@H](C)O)[C@@H](C)O)C(=O)N[C@@H](CCC(=O)O)C(=O)N[C@@H](Cc1c[nH]c2ccccc12)C(=O)N[C@@H](CC(C)C)C(=O)N[C@@H](CC(C)C)C(=O)N[C@@H](C)C(=O)NCC(=O)N[C@@H](Cc1c[nH]cn1)C(=O)N[C@@H](Cc1c[nH]cn1)C(=O)N[C@@H](Cc1c[nH]cn1)C(=O)N[C@@H](Cc1c[nH]cn1)C(=O)N[C@@H](Cc1c[nH]cn1)C(=O)N1CCC[C@H]1C(=O)N[C@@H](CO)C(=O)N[C@@H](Cc1c[nH]c2ccccc12)C(=O)O` [SRB103H] (H-H[Aib]HGTFTSDYSKYLDAKRAQEFIEWLLAGHHHHHPSW-OH), on GLP-1R (HEK-293T, normalised to globally fitted maximum response), the Emax came out at 103 ± 4%. Also, the EC50 on GLP-1R (3-parameter fit, read-out: GLP-1R mini-Gs (HEK293T) pEC50 (converted)) was 79.4 nM. The “Plasma concentration 4 h after a single dose” value in data set [1] is “the same”.
